# Test results published in patent US20110052667A1, “COMPOSITIONS AND METHODS FOR INHIBITING ANGIOGENESIS AND TUMORIGENESIS” (Sylgen Laboratories, Inc., priority 2007, published 2011).
# “Also recorded” adds a separate entry of the source.
# How the values were obtained:
# human EphB4 promoter [1] = assay: EphB4 promoter luciferase reporter assay in R+ cells (mouse embryo fibroblasts expressing human IGF-I receptor); assay type: cell-based
# From the text: The TAAT motif at position −1365 of the −1500/−7mut construct used in conditions 7-9 was substituted with a TGCT motif by site directed mutagenesis. In FIG. 2, Series 1: Firefly Luciferare signal (pGL3-Luc EphB4 constructs); Seies 2: Renilla Luciferase signal (mock vector); and RLU: Relative Luciferase Units. Conditions: 1-3: −7/−1508 EphB4 promoter region; 4-6: −7/−1028 EphB4 promoter region; 7-9: −7/−1508mut EphB4 promoter construct, wherein: 1. Serum Free, EphB4 promoter −7/−1508; 2. IGF-II, 10 nM, EphB4 promoter −7/−1508; 3.10% FBS, EphB4 promoter −7/−1508; 4. Serum Free, EphB4 promoter −7/−1028; 5. IGF-II, 10 nM, EphB4 promoter −7/−1028; 6.10% FBS, EphB4 promoter −7/−1028; 7. Serum Free, EphB4 promoter −7/−1508mut; 8. IGF-II, 10 nM, EphB4 promoter −7/−1508mut; and 9.10% FBS, EphB4 promoter −7/−1508mut.
# In order to establish the role of IGF-II on EphB4 expression, a mouse embryo fibroblast cell line expressing the human IGF-I receptor (R^+ cells) was transiently transfected with three variants of the human EphB4 promoter previously described by Bruhl et al., supra, along with trace amounts of a renilla luciferase mock vector. […] Cell lysates were generated and then assayed for Luciferase activity using a Promega Dual luciferase assay and a Veritas Luminescence reader (Biotek).
# human EphB4 promoter [2] = assay: EphB4 promoter luciferase reporter assay in R-InsR-A cells (IGF-IR null embryo fibroblasts expressing human InsR-A); assay type: cell-based; settings: IGF-II 10 nM
# Experimental: In FIG. 3, Series 1: Firefly Luciferare signal (pGL3-Luc −1508/−7 EphB4 construct); Series 2: Renilla Luciferase signal (mock vector); and RLU=Relative Luciferase Units. Conditions: 1. R^+ cells (IGF-IR^+); Serum Free, EphB4 promoter −7/−1508; 2. R^+ cells (IGF-IR^+); IGF-II, 10 nM, EphB4 promoter −7/−1508; 3. R-IRA cells (InsR-A^+); Serum Free, EphB4 promoter −7/−1508; 4. R-IRA cells (InsR-A^+); IGF-II, 10 nM, EphB4 promoter −7/−1508.
# In order to establish the role of IGF-II on EphB4 expression, a mouse embryo fibroblast cell line expressing the human IGF-I receptor (R^+ cells) was transiently transfected with three variants of the human EphB4 promoter previously described by Bruhl et al., supra, along with trace amounts of a renilla luciferase mock vector. 24 hrs post-trasfection, the cells were serum starved for 12 hrs and then stimulated (or not) with 10 nM IGF-II for 8 hrs. Cell lysates were generated and then assayed for Luciferase activity using a Promega Dual luciferase assay and a Veritas Luminescence reader (Biotek). […]
substance,measurement,setting,value
"IGF-II: Insulin-like growth factor-II, used at 10 nM to stimulate cells carrying EphB4 promoter reporter constructs","EphB4 reporter gene activation, promoter with -1500 to -1028 region deleted (-1028 to -7 construct)",human EphB4 promoter [1]; 10 nM IGF-II,but not when the −1500 to −1028 region is deleted
same,"EphB4 gene activation (reporter gene, full length promoter -1508 to -7)","human EphB4 promoter [1]; 10 nM IGF-II for 8 hrs, Dual luciferase assay, compared with serum (10% FBS)",able to stimulate EphB4 gene activation at levels comparable to the ones obtained with serum activation; also recorded: causes the activation of the EphB4 reporter gene
same,"EphB4 gene activation (reporter gene, promoter -7/-1508) through InsR-A",human EphB4 promoter [2],comparable to that obtained through IGF-IR activation
